Experimental data published in publication PMC7316778 (Nature Communications, 2020).
Where “and” joins values, the source holds several entries; their conditions need not be identical. Identical values can stand only once. Like-named read-outs stand apart in the source and are kept apart here.

Columns and labels:
Test in all cases: SelectScreen kinase assay
PIM2 = PIM2 (Homo sapiens, UniProt Q9P1W9)
Experimental: (§1) Selectivity profiling assays were performed by the Invitrogen SelectScreen™ Services. […] The concentration of ATP was selected to be equal to the KM, unless indicated otherwise.

ITK = molecular target: T1, ITK (Homo sapiens, UniProt Q08881); settings: for Inhibition at 1 µM (%): ITK, ZLYTE, ATP Km app
T1 sequence (Q08881 1-620): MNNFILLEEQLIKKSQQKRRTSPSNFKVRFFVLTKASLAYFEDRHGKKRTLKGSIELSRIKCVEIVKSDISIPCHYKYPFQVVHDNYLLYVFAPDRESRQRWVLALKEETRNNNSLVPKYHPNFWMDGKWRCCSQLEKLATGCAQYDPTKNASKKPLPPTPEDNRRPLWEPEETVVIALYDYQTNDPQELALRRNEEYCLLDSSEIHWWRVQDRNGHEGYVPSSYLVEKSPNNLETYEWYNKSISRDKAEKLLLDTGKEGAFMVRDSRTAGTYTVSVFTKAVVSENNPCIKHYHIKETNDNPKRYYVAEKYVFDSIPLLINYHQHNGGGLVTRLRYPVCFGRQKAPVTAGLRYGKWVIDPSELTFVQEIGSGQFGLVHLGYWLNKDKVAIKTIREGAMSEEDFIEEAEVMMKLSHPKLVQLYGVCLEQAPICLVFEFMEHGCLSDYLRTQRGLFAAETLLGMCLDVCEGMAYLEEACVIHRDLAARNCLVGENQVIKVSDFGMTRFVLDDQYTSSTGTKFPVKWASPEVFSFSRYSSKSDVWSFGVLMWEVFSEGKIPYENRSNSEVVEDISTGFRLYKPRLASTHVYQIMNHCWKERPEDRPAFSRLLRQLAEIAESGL
Experimental: as §1

ZAP70 = ZAP70 (Homo sapiens, UniProt P43403); settings: 1 h, 1 μM WEL028, 1 h preincubation
Experimental: as §1

GRK1 = molecular target: T2, GRK1 (Homo sapiens, UniProt Q15835)
T2 sequence (Q15835 1-563): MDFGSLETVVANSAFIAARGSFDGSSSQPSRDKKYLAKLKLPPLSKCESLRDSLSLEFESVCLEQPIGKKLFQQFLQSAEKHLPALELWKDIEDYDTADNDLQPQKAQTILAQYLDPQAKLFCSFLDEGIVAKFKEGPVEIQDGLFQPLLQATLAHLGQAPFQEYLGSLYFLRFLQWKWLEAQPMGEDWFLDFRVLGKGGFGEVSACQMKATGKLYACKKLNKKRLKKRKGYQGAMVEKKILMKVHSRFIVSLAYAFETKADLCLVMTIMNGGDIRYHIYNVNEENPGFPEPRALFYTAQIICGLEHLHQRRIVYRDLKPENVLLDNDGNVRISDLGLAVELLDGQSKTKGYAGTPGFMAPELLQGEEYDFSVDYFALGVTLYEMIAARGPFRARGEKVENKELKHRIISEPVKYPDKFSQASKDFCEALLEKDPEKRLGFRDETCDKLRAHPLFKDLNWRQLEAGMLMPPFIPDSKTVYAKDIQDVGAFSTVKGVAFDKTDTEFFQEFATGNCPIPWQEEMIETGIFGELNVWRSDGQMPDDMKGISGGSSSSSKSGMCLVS
Experimental: as §1

SPHK1 = SPHK1 (Homo sapiens, UniProt Q9NYA1)
Chain of SPHK1 (Q9NYA1 whole entry): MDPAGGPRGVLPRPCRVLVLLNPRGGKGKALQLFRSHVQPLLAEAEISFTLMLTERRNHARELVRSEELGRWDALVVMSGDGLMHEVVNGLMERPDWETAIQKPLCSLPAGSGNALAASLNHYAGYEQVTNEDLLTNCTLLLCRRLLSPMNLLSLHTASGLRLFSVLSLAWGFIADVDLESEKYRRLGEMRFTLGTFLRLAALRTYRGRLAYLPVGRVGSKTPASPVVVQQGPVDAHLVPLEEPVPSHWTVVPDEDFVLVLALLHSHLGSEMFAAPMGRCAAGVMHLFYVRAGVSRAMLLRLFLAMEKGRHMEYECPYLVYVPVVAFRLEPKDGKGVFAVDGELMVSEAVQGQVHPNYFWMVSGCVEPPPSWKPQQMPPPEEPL
Experimental: as §1

NEK6 = NEK6 (Homo sapiens, UniProt Q9HC98); settings: for Inhibition at 1 µM (%): NEK6, ZLYTE, ATP Km app
Chain of NEK6 (Q9HC98 whole entry): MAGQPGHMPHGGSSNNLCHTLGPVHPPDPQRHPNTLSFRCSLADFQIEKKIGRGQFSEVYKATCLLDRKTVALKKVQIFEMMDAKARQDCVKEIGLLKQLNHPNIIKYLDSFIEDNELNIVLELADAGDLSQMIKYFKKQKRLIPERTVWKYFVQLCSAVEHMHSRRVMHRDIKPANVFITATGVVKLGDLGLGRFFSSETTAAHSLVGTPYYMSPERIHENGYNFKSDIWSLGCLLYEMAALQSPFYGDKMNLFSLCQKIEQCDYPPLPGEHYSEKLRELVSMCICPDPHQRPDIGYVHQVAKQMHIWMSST
Experimental: as §1

MARK2 = MARK2 (Homo sapiens, UniProt Q7KZI7)
Chain of MARK2 (Q7KZI7 whole entry): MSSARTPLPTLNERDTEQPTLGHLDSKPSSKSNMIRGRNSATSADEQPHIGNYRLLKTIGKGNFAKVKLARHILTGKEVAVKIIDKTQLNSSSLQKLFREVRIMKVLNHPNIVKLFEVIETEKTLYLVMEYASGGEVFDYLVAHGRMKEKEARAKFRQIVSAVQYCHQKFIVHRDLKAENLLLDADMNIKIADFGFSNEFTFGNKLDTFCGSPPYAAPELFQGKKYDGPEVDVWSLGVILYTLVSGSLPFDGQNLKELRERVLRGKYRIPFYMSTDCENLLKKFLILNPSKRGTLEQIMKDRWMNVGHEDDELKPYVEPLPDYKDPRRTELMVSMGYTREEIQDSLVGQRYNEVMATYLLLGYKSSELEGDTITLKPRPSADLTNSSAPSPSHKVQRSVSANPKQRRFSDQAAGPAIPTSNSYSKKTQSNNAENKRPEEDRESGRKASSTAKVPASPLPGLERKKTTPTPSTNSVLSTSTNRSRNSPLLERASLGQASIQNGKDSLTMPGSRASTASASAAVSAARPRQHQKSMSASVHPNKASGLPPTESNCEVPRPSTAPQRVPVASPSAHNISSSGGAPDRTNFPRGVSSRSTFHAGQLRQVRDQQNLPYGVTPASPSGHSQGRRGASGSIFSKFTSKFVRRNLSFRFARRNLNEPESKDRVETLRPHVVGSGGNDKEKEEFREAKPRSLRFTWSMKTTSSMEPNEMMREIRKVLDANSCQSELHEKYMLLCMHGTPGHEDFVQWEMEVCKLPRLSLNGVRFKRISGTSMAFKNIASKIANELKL
Experimental: as §1

NEK1 = NEK1 (Homo sapiens, UniProt Q96PY6)
Experimental: as §1

CSNK1G3 (CK1 gamma 3) = CSNK1G3 (CK1 gamma 3) (Homo sapiens, UniProt Q9Y6M4)
Chain of CSNK1G3 (CK1 gamma 3) (Q9Y6M4 whole entry): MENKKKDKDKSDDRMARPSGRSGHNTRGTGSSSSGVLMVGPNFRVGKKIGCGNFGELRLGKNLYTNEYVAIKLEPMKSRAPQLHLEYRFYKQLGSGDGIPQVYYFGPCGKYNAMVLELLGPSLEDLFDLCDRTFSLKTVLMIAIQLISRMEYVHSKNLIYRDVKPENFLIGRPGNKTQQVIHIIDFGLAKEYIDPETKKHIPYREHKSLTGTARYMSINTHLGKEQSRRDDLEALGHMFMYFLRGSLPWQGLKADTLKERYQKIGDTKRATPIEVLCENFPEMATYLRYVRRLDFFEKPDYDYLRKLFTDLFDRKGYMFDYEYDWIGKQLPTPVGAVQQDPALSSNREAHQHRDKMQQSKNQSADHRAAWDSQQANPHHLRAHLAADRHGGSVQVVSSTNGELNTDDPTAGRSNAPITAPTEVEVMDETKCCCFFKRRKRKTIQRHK
Experimental: as §1

CLK4 = CLK4 (Homo sapiens, UniProt Q9HAZ1)
Chain of CLK4 (Q9HAZ1 whole entry, species assumed): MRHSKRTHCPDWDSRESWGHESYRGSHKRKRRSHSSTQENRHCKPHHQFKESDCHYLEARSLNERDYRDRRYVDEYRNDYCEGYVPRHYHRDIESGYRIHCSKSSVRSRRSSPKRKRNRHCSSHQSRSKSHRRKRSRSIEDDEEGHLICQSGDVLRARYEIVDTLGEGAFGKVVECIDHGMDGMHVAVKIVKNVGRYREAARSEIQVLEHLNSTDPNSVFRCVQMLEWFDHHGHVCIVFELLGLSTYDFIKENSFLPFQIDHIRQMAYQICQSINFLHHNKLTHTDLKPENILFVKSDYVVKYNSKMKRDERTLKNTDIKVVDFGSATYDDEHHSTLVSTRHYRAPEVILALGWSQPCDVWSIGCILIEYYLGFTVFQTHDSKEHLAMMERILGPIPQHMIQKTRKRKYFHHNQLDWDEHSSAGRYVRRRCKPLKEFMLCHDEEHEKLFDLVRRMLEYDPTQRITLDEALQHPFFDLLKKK
Experimental: as §1

CAMK2D (CaMKII delta) = CAMK2D (CaMKII delta) (Homo sapiens, UniProt Q13557)
Chain of CAMK2D (CaMKII delta) (Q13557 whole entry): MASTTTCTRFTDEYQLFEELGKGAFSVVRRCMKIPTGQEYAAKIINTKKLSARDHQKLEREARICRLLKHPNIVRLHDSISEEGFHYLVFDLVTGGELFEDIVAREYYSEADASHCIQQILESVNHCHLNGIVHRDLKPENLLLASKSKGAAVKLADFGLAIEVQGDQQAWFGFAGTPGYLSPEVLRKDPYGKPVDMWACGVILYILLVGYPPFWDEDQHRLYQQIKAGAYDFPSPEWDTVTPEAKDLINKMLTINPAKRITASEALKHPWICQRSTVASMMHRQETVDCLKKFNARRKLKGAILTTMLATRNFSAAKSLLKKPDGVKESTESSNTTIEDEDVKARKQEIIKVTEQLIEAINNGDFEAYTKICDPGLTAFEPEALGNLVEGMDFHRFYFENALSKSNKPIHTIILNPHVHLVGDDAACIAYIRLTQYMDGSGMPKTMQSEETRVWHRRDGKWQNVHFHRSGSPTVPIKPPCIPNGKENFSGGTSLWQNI
Experimental: as §1

MAP3K9 (MLK1) = MAP3K9 (MLK1) (Homo sapiens, UniProt P80192)
Experimental: as §1

MYLK (MLCK) = MYLK (MLCK) (Homo sapiens, UniProt Q15746)
Experimental: as §1

MINK1 = MINK1 (Homo sapiens, UniProt Q8N4C8)
Chain of MINK1 (Q8N4C8 whole entry): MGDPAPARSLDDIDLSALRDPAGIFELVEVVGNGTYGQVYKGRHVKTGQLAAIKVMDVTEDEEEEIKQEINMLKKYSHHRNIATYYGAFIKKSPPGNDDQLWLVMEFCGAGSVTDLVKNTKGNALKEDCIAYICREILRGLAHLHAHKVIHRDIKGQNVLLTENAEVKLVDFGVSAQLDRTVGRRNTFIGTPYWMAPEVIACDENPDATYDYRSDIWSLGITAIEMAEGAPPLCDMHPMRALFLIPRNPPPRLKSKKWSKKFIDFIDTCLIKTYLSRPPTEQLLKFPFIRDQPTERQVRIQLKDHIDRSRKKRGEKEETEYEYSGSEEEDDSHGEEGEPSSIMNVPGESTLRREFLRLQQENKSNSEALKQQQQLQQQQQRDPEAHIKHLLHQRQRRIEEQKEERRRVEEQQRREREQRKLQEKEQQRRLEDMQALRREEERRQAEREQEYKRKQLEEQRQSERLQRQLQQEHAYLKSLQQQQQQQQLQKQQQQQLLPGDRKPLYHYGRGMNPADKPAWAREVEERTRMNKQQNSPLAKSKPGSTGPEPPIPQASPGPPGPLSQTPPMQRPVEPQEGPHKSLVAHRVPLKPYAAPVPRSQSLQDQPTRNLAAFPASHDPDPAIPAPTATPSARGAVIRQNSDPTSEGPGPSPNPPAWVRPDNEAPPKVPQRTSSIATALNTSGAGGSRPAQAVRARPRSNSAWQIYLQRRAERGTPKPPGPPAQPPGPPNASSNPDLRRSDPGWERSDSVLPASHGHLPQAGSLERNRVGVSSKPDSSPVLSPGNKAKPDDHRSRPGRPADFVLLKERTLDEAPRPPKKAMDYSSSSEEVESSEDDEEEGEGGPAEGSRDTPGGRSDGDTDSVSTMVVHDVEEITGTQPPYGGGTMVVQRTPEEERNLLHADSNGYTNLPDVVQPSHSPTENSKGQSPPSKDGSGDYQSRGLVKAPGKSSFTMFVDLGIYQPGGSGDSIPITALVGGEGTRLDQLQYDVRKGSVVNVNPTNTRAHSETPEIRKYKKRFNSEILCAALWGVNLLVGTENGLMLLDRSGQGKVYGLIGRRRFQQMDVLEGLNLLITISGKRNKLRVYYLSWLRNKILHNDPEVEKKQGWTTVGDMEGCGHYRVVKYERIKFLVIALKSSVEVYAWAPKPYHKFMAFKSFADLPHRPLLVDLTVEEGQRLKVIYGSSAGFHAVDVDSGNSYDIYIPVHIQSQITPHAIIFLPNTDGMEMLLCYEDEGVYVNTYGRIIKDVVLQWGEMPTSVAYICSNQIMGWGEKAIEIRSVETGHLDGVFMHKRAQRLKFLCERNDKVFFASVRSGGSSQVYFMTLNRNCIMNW
Experimental: as §1

PRKACB (PRKAC beta) = PRKACB (PRKAC beta) (Homo sapiens, UniProt P22694); settings: for Inhibition at 1 µM (%): PRKACB (PRKAC beta), LanthaScreen Binding
Experimental: as §1

[1] = 1 h, 1 μM WEL028, 1 h preincubation

Chain of PIM2 (Q9P1W9 whole entry): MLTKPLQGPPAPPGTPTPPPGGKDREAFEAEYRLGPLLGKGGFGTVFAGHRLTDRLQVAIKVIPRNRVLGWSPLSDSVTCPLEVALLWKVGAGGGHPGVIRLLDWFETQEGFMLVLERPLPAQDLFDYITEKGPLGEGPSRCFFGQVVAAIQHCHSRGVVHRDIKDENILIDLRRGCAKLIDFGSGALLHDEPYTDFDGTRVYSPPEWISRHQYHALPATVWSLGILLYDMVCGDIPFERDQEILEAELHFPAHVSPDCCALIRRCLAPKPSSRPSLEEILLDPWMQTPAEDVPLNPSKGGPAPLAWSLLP

C#CCOc1ccc(Nc2ncc(Cl)c(Nc3ccccc3NC(=O)C=C)n2)c(OC)c1 [Compound 6]
inhibition at 1 µM (PIM2; [1]): -4% | Inhibition at 1 µM (%) (PIM2; PIM2, 1 µM, ZLYTE, ATP Km app): -3% | Inhibition (%) (ITK; 1 μM WEL028, 1 h preincubation): -7% | Inhibition at 1 µM (%) (ITK): -3% | Inhibition at 1 µM (%) (ITK; listed as WEL028, 1 µM): -10% | inhibition at 1 µM (ZAP70): 2% | inhibition at 1 µM (GRK1; [1]): 8% | Inhibition at 1 µM (%) (GRK1; GRK1, 1 µM, LanthaScreen Binding, listed as WEL028, 1 µM): 7% | inhibition at 1 µM (GRK1; read-out: Inhibition at 1 µM (%), GRK1, 1 µM, LanthaScreen Binding): 9% | Inhibition at 1 µM (%) (SPHK1; 1 µM, Adapta, ATP Km app, listed as WEL028, 1 µM): 4% and 1% | inhibition at 1 µM (SPHK1; [1]): 2% | inhibition at 1 µM (NEK6; [1]): 9% | Inhibition at 1 µM (%) (NEK6): 13% | Inhibition at 1 µM (%) (NEK6; listed as WEL028, 1 µM): 5% | inhibition at 1 µM (MARK2; [1]): 8% | Inhibition at 1 µM (%) (MARK2; MARK2, 1 µM, ZLYTE, ATP Km app, listed as WEL028, 1 µM): 9% | inhibition at 1 µM (MARK2; read-out: Inhibition at 1 µM (%), MARK2, 1 µM, ZLYTE, ATP Km app): 6% | inhibition at 1 µM (NEK1; [1]): 6% | Inhibition at 1 µM (%) (NEK1; NEK1, 1 µM, ZLYTE, ATP Km app): 12% | Inhibition (%) (CSNK1G3 (CK1 gamma 3); 1 μM WEL028, 1 h preincubation): 0% | Inhibition at 1 µM (%) (CSNK1G3 (CK1 gamma 3); CSNK1G3 (CK1 gamma 3), 1 µM, ZLYTE, ATP Km app, listed as WEL028, 1 µM): 3% and -2% | IC50 (CLK4): 1.26 µM | inhibition at 1 µM (CLK4; [1]): 53% | inhibition at 10 µM (CLK4; 1 h, log[inhibitor] (M) -5.00, LanthaScreen Binding): 30% | inhibition at 3.311 µM (CLK4; 1 h, log[inhibitor] (M) -5.48, LanthaScreen Binding): 55% | inhibition at 1.122 µM (CLK4; 1 h, log[inhibitor] (M) -5.95, LanthaScreen Binding): 64% | inhibition at 0.3715 µM (CLK4; 1 h, log[inhibitor] (M) -6.43, LanthaScreen Binding): 39% | inhibition at 0.123 µM (CLK4; 1 h, log[inhibitor] (M) -6.91, LanthaScreen Binding): 26% | inhibition at 0.0138 µM (CLK4; 1 h, log[inhibitor] (M) -7.86, LanthaScreen Binding): 15% | inhibition at 0.001514 µM (CLK4; 1 h, log[inhibitor] (M) -8.82, LanthaScreen Binding): 11% | inhibition at 0.004571 µM (CLK4; 1 h, log[inhibitor] (M) -[…], LanthaScreen Binding): 8% | Inhibition at 1 µM (%) (CLK4; CLK4, 1 µM, LanthaScreen Binding, listed as WEL028, 1 µM): 52% | Apparent fold selectivity (CLK4; IC50 on that kinase divided by IC50 on FES^S700C): 272 fold | inhibition at 1 µM (CLK4; read-out: Inhibition at 1 µM (%), CLK4, 1 µM, LanthaScreen Binding): 54% | inhibition at 1 µM (CAMK2D (CaMKII delta); [1]): 8% | Inhibition at 1 µM (%) (CAMK2D (CaMKII delta); CAMK2D (CaMKII delta), 1 µM, ZLYTE, ATP Km app): 15% | inhibition at 1 µM (MAP3K9 (MLK1); [1]): -11% | Inhibition at 1 µM (%) (MAP3K9 (MLK1); MAP3K9 (MLK1), 1 µM, ZLYTE, ATP Km app): -21% | inhibition at 1 µM (MYLK (MLCK); 1 h): 15% | inhibition at 1 µM (MYLK (MLCK); read-out: Inhibition at 1 µM (%)): 15% | inhibition at 1 µM (MINK1; [1]): 20% | Inhibition at 1 µM (%) (MINK1; MINK1, 1 µM, ZLYTE, ATP Km app, listed as WEL028, 1 µM): 21% | inhibition at 1 µM (MINK1; read-out: Inhibition at 1 µM (%), MINK1, 1 µM, ZLYTE, ATP Km app): 19% | inhibition at 1 µM (PRKACB (PRKAC beta); [1]): 8% | Inhibition at 1 µM (%) (PRKACB (PRKAC beta)): 12% | Inhibition at 1 µM (%) (PRKACB (PRKAC beta); listed as WEL028, 1 µM): 5%
